Calls of active or inactive are those of the source. No cut-off for these calls is given here.
Legend:
MDA-MB-231 [1] = assay: Antimetastatic activity against human MDA-MB-231 cells xenografted in SCID mouse assessed as reduction in metastasis foci formation in lungs at 100 mg/kg, ip administered 3 times per week by hematoxylin-eosin staining based assay; format: functional, organism-based
MDA-MB-231 [2] = assay: Cytotoxicity against human MDA-MB-231 cells assessed as reduction in cell viability at 100 ug/ml incubated for 48 hrs by MTT assay; format: cell-based; conditions: mda-mb-231, 48 h
[3] = biological target: Aminopeptidase N (Homo sapiens) (UniProt P15144); conditions: MDA-MB-231, 50 ug/ml
Description: Inhibition of human APN in MDA-MB-231 cells at 50 ug/ml using L-leucine-p-nitroanilide as a substrate incubated for 1 hr by spectrophotometric method relative to control

MDA-MB-231 [4] = assay: Antimigratory activity in human MDA-MB-231 cells assessed as induction of slow cell migration at 100 ug/ml incubated up to 24 hrs by wound healing assay; format: functional, cell-based
MDA-MB-231 [5] = assay: Induction of apoptosis in human MDA-MB-231 cells assessed as early apoptotic cells at 50 ug/ml by Annexin V/PI staining based flow cytometric method (reference value: 0.54%); format: functional
MDA-MB-231 [6] = assay: Inhibition of cell migration in human MDA-MB-231 cells assessed as scratch healing at 10 to 100 ug/ml incubated for 24 hrs by wound healing assay; format: functional; parameters: scale not given: the % may be the effect or the level left
MDA-MB-231 [7] = assay: Induction of apoptosis in human MDA-MB-231 cells assessed as induction of PARP cleavage at 10 to 100 ug/ml 6 to 48 hrs by Western blot analysis; format: functional, cell-based
MDA-MB-231 [8] = assay: Induction of apoptosis in human MDA-MB-231 cells assessed as early apoptotic cells at 100 ug/ml by Annexin V/PI staining based flow cytometric method (reference value: 0.54%); format: functional
MDA-MB-231 [9] = assay: Effect on MMP9 protein expression in human MDA-MB-231 cells; format: functional, cell-based
MDA-MB-231 [10] = assay: Induction of apoptosis in human MDA-MB-231 cells assessed as late apoptotic cells at 50 ug/ml by Annexin V/PI staining based flow cytometric method (reference value: 0.92%); format: functional
MDA-MB-231 [11] = assay: Induction of apoptosis in human MDA-MB-231 cells assessed as necrotic cells at 100 ug/ml by Annexin V/PI staining based flow cytometric method (reference value: 7.79%); format: functional
MDA-MB-231 [12] = assay: Antimetastatic activity in human MDA-MB-231 cells assessed as reduction in cell migration at 50 to 100 ug/ml incubated for 24 hrs by transwell assay; format: functional, cell-based
MDA-MB-231 [13] = assay: Effect on MMP7 protein expression in human MDA-MB-231 cells; format: functional, cell-based
MDA-MB-231 [14] = assay: Induction of apoptosis in human MDA-MB-231 cells assessed as necrotic cells at 50 ug/ml by Annexin V/PI staining based flow cytometric method (reference value: 7.79%); format: functional
MDA-MB-231 [15] = assay: Inhibition of colony formation in human MDA-MB-231 cells at 50 to 100 ug/ml incubated for 10 days; format: functional, cell-based
[16] = biological target: Aminopeptidase N (Homo sapiens) (UniProt P15144); assay: Inhibition of human APN in MDA-MB-231 cells at >50 ug/ml using L-leucine-p-nitroanilide as a substrate incubated for 1 hr by spectrophotometric method relative to control; format: cell-based
MDA-MB-231 [17] = assay: Inhibition of cell migration in human MDA-MB-231 cells incubated upto to 24 hrs by wound healing assay; format: functional, cell-based
MDA-MB-231 [18] = assay: Cytotoxicity against human MDA-MB-231 cells assessed as reduction in cell viability at 100 ug/ml incubated for 24 to 48 hrs by MTT assay relative to control; format: cell-based
MDA-MB-231 [19] = assay: Induction of apoptosis in human MDA-MB-231 cells assessed as live cells at 100 ug/ml by Annexin V/PI staining based flow cytometric method (reference value: 90.75%); format: functional
MDA-MB-231 [20] = assay: Induction of apoptosis in human MDA-MB-231 cells assessed as live cells at 50 ug/ml by Annexin V/PI staining based flow cytometric method (reference value: 90.75%); format: functional
MDA-MB-231 [21] = assay: Effect on MMP2 protein expression in human MDA-MB-231 cells; format: functional, cell-based
MDA-MB-231 [22] = assay: Induction of apoptosis in human MDA-MB-231 cells assessed as late apoptotic cells at 100 ug/ml by Annexin V/PI staining based flow cytometric method (reference value: 0.92%); format: functional
MDA-MB-231 [23] = assay: Effect on APN protein expression in human MDA-MB-231 cells at 10 to 100 ug/ml by Western blot analysis; format: functional, cell-based

Aminopeptidase N (Homo sapiens), sequence (P15144 whole entry): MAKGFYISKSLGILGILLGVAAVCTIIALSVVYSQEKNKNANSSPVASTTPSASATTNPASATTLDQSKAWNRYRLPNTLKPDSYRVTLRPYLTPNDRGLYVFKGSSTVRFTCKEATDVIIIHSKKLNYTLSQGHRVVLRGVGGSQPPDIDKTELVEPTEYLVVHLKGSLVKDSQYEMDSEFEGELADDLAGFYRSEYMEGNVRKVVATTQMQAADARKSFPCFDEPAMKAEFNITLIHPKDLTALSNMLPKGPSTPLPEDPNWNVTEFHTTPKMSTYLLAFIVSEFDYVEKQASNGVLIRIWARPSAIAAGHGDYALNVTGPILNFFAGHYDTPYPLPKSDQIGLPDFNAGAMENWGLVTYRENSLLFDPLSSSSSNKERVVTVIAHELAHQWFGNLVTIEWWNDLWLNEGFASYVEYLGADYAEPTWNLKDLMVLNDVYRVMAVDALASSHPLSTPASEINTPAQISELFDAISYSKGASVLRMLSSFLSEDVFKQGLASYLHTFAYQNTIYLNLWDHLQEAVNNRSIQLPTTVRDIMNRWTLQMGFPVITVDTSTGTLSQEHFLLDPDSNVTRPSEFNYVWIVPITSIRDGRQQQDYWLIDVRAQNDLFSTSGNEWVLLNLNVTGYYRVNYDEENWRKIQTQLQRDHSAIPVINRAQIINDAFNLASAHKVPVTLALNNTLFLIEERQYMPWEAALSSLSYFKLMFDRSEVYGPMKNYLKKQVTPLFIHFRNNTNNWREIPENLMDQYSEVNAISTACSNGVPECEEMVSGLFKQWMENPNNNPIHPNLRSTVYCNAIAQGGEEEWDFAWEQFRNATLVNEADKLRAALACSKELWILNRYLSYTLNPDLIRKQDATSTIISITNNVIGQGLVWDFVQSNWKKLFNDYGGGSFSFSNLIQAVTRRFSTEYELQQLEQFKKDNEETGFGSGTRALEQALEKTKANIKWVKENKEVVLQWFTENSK

For `CC(C)C[C@H](NC(=O)[C@@H](O)[C@H](N)Cc1ccccc1)C(=O)O` [UBENIMEX], the Activity (MDA-MB-231 [1]) was “Active”, the Activity (MDA-MB-231 [2]) was “Toxic” and the inhibition [3] was “Active”.

`CC[C@H](C)[C@H](NC(=O)[C@@H](NC(=O)[C@@H](O)[C@H](N)Cc1ccccc1)C(C)C)C(=O)O` was tested, and the Activity (MDA-MB-231 [4]) was “Active”, the Activity (MDA-MB-231 [5]) was 0.73% and the Activity (MDA-MB-231 [6]) was 50%. The Activity (MDA-MB-231 [7]) was “inactive”, the Activity (MDA-MB-231 [8]) was 0.71% and the Activity (MDA-MB-231 [9]) was “inactive”. For the same compound, the Activity (MDA-MB-231 [10]) was 0.77%, the Activity (MDA-MB-231 [11]) was 9.05% and the Activity (MDA-MB-231 [12]) was “Active”. The Activity (MDA-MB-231 [13]) was “inactive”, the Activity (MDA-MB-231 [14]) was 8.51% and the inhibition (MDA-MB-231 [15]) was “Active”. The inhibition [16] was over 50%, the Activity (MDA-MB-231 [1]) was “Active” and the inhibition (MDA-MB-231 [17]) was “Dose-dependent effect”. For the same compound, the Activity (MDA-MB-231 [18]) was “<= 20%”, the Activity (MDA-MB-231 [19]) was 89.5% and the Activity (MDA-MB-231 [20]) was 89.98%. The Activity (MDA-MB-231 [21]) was “inactive”, the Activity (MDA-MB-231 [22]) was 0.75% and the Activity (MDA-MB-231 [23]) was “inactive”.

Reference: ChEMBL document CHEMBL4387735, “Chemically synthesized LYRM03 could inhibit the metastasis of human breast cancer MDA-MB-231 cells in vitro and in vivo” (Bioorg Med Chem Lett, 2019)
